Legend:
[1] = target: T1, Dihydrofolate reductase (Enterococcus faecium) (UniProt P00380)
T1 sequence (whole entry): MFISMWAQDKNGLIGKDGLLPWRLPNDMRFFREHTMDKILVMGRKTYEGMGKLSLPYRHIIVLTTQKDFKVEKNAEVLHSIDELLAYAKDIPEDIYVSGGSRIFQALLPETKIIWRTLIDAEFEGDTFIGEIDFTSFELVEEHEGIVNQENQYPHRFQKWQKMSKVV
Description: Inhibition of Streptococcus faecium dihydrofolate reductase using dihydrofolate as substrate

Plasmodium berghei [2] = test: Antimalarial activity against Plasmodium berghei infected in po dosed mouse assessed as suppression of parasitemia; assay type: functional
Plasmodium berghei [3] = test: Antimalarial activity against Plasmodium berghei infected mouse assessed as suppression of parasitemia administered through diet for 6 days; assay type: functional

Compound	log(1/I50) [1]	log(1/SD90) (Plasmodium berghei [3])	other results
Nc1nc(N)c2cc([S+]([O-])c3ccc4ccccc4c3)ccc2n1 (configuration not stated)	8.7		
CCOC(=O)c1ccc(CNc2ccc3nc(N)nc(N)c3c2)cc1	7.34		
CCOC(=O)c1ccc(CNc2ccc3nc(N)nc(O)c3c2)cc1	4.55		
Nc1nc(O)c2cc([S+]([O-])c3ccc4ccccc4c3)ccc2n1 (configuration not stated)	5.28		
Nc1nc(O)c2c(S(=O)(=O)c3ccc4ccccc4c3)cccc2n1	5.85		
Nc1nc(N)c2c(n1)CCN(Cc1ccc(Cl)c(Cl)c1)C2			log(1/SD90) (Plasmodium berghei [2]): 4.92
Cc1c(CNc2ccc(C(=O)O)cc2)ccc2nc(N)nc(N)c12	7.96		
Nc1nc(N)c2c([S+]([O-])c3ccc(Cl)c(Cl)c3)cccc2n1 (configuration not stated)	4.65		
CCN(CC)c1nc(N(CC)CC)c2cc(NCc3ccc(Cl)c(Cl)c3)ccc2n1		3.31	
CN(C)c1nc(N(C)C)c2cc(NCc3ccc(Cl)c(Cl)c3)ccc2n1		4.21	
Nc1nc(N)c2cc(CN(N=O)c3ccc(Cl)c(Cl)c3)ccc2n1			log(1/SD90) (Plasmodium berghei [2]): 6.16
CCOC(=O)c1ccc(NCc2ccc3nc(N)nc(N)c3c2)cc1	7.68		
Cc1c(CN(N=O)c2ccc(Cl)c(Cl)c2)ccc2nc(N)nc(N)c12			log(1/SD90) (Plasmodium berghei [2]): 5.52
Cc1c(N(Cc2ccc(Cl)c(Cl)c2)N=O)ccc2nc(N)nc(N)c12			log(1/SD90) (Plasmodium berghei [2]): 5.15
Nc1nc(N)c2c(n1)CCN(Cc1ccc(Cl)cc1)C2			log(1/SD90) (Plasmodium berghei [2]): 4.14
Nc1nc(N)c2c(CSc3ccc(Cl)cc3)cccc2n1	7.24		
Nc1nc(N)c2cc(-n3cccc3)ccc2n1			log(1/SD90) (Plasmodium berghei [2]): 4.29
Nc1nc(O)c2cc(S(=O)(=O)c3ccc4ccccc4c3)ccc2n1	6.3		
Nc1nc(N)c2cc(NCc3ccc(Cl)s3)ccc2n1		4.49	
Nc1nc(N)c2cc(N(Cc3ccc(Cl)c(Cl)c3)N=O)cnc2n1		4.48	
Nc1ncnc2ccc(S(=O)(=O)c3ccc4ccccc4c3)cc12	3.51		
Nc1nc(N)c2cc(NCc3ccccc3[N+](=O)[O-])ccc2n1		3.26	
CN(C)c1nc(N)c2cc(NCc3ccccc3)ccc2n1		3.75	
Nc1nc(N)c2cc(NCc3cccs3)ccc2n1		3.82	
Nc1nc(N)c2cc(Sc3cccc(C(F)(F)F)c3)ccc2n1	9.15		

Compound	log(1/I50) [1]	log(1/SD90) (Plasmodium berghei [3])	other results
O=c1[nH]c(=O)c2cc(Sc3ccc4ccccc4c3)ccc2[nH]1	4.32		
CCOC(=O)c1ccc(NCc2ccc3nc(N)nc(O)c3c2)cc1	7.07		
CCN(Cc1ccc(Cl)cc1)c1ccc2nc(N)nc(N)c2c1		6.4	
Nc1nc(N)c2c([S+]([O-])c3ccc4ccccc4c3)cccc2n1 (configuration not stated)	4.36		
Nc1nc(N)c2c(n1)CCN(Cc1ccncc1)C2			log(1/SD90) (Plasmodium berghei [2]): 3.31
Nc1nc(N)c2c(S(=O)(=O)c3ccc4ccccc4c3)cccc2n1	4.05		
Oc1nc(S)nc2ccc(Sc3ccc4ccccc4c3)cc12	3.85		
O=c1[nH]c(=S)c2cc(Sc3ccc4ccccc4c3)ccc2[nH]1	4.24		
CCN(Cc1ccc(Cl)c(Cl)c1)c1ccc2nc(N)nc(N)c2c1		6	
CCCN(Cc1ccc(Cl)cc1)c1ccc2nc(N)nc(N)c2c1		6.3	
Nc1nc(N)c2c(Sc3ccc4ccccc4c3)cccc2n1	7.25		
CCCCNc1nc(NCCCC)c2cc(NCc3ccc(Cl)c(Cl)c3)ccc2n1		3.47	
Nc1nc(N)c2cc(N(C=O)Cc3ccc(Cl)c(Cl)c3)ccc2n1			log(1/SD90) (Plasmodium berghei [2]): 5.24
Cc1c(CNc2ccc(Cl)c(Cl)c2)ccc2nc(N)nc(N)c12			log(1/SD90) (Plasmodium berghei [2]): 6.02
Nc1nc(N)c2c(/C=C\c3ccc4ccccc4c3)cccc2n1	7.43		
CCN(Cc1ccc(Cl)c(Cl)c1)c1ccc2nc(N)nc(N)c2c1C		5.2	
Nc1nc(O)c2cc(S(=O)(=O)c3ccc(Cl)c(Cl)c3)ccc2n1	5.3		
CCOC(=O)CCC(NC(=O)c1ccc(NCc2ccc3nc(N)nc(N)c3c2)cc1)C(=O)OCC (configuration not stated)	7.7		
Nc1nc(N)c2cc(NCc3cccc(Br)c3)ccc2n1		5.93	
Cc1c(NCc2ccc(Cl)c(Cl)c2)ccc2nc(N)nc(N)c12		4.83	
Sc1nc(S)c2cc(Sc3ccc4ccccc4c3)ccc2n1	3.65		
Nc1nc(S)c2cc(Sc3ccc4ccccc4c3)ccc2n1	6.1		
CCOC(=O)c1ccc(CNc2ccc3nc(N)nc(O)c3c2C)cc1	4.52		
Nc1nc(N)c2c(S(=O)(=O)c3ccc(Cl)c(Cl)c3)cccc2n1	5.85		
Nc1nc(N)c2cc(CN(C=O)c3ccc(C(=O)NC(CCC(=O)O)C(=O)O)cc3)ccc2n1 (configuration not stated)	9		

Compound	log(1/I50) [1]	log(1/SD90) (Plasmodium berghei [3])	other results
Nc1nc(N)c2c(n1)CCN(Cc1cccnc1)C2			log(1/SD90) (Plasmodium berghei [2]): 3.88
Nc1nc(N)c2cc(S(=O)(=O)c3ccc(Cl)c(Cl)c3)ccc2n1	9.15		
CCCCOC(=O)c1ccc(NCc2ccc3nc(N)nc(N)c3c2C)cc1	8.15		
CCCN(Cc1ccc(Cl)c(Cl)c1)c1ccc2nc(N)nc(N)c2c1C		5.36	
CCCN(Cc1ccc(Cl)c(Cl)c1)c1ccc2nc(N)nc(N)c2c1		6.1	
Nc1ncnc2ccc([S+]([O-])c3ccc4ccccc4c3)cc12 (configuration not stated)	4.58		
CCOC(=O)c1ccc(CNc2ccc3nc(N)nc(N)c3c2Cl)cc1	8.2		
CN(Cc1ccccc1)c1ccc2nc(N)nc(N)c2c1		6.15	
CCOC(=O)c1ccc(NCc2ccc3nc(N)nc(N)c3c2C)cc1	8.29		
CN(Cc1ccc(Cl)c(Cl)c1)c1ccc2nc(N)nc(N)c2c1		6.34	
Nc1nc(N)c2c(n1)CCN(Cc1ccccc1Cl)C2			log(1/SD90) (Plasmodium berghei [2]): 3.73
Nc1nc(O)c2c(Sc3ccc4ccccc4c3)cccc2n1	4.68		
CC(C)N(Cc1ccc(Cl)cc1)c1ccc2nc(N)nc(N)c2c1		6.76	
Nc1nc(O)c2cc(CN(C=O)c3ccc(C(=O)NC(CCC(=O)O)C(=O)O)cc3)ccc2n1 (configuration not stated)	6.52		
Nc1nc(N)c2cc(S(=O)(=O)c3ccc4ccccc4c3)ccc2n1	8.4		
Nc1nc(N)c2cc(CNc3ccc(Cl)cc3)ccc2n1			log(1/SD90) (Plasmodium berghei [2]): 5.2
Nc1nc(N)c2c(CSc3ccc4ccccc4c3)cccc2n1	7.55		
Nc1nc(N)c2c(CCc3ccc4ccccc4c3)cccc2n1	8		
CCCCCCCCN(Cc1ccc(Cl)cc1)c1ccc2nc(N)nc(N)c2c1		4.08	
Nc1nc(S)nc2ccc(Sc3ccc4ccccc4c3)cc12	4.69		
Nc1nc(N)c2c(Cl)c(NCc3ccc(Cl)c(Cl)c3)ccc2n1		5.72	
CCCCN(Cc1ccc(Cl)c(Cl)c1)c1ccc2nc(N)nc(N)c2c1		5.06	
Nc1nc(O)c2cc(Sc3ccc4ccccc4c3)ccc2n1	6.74		
Nc1nc(N)c2c(Cl)c(CNc3ccc(C(=O)O)cc3)ccc2n1	8.27		
CCOC(=O)c1ccc(CNc2ccc3nc(N)nc(O)c3c2Cl)cc1	6.09		

Compound	log(1/I50) [1]	log(1/SD90) (Plasmodium berghei [3])	other results
COc1cccc(CNc2ccc3nc(N)nc(N)c3c2)c1		4.15	
Nc1nc(N)c2cc(NCc3ccc4ccccc4c3Cl)ccc2n1		4.59	
Cc1c(NCc2ccccc2)ccc2nc(N)nc(N)c12		5.33	
Nc1nc(O)nc2ccc(Sc3ccc4ccccc4c3)cc12	4.34		
Nc1nc(S)c2cc(S(=O)(=O)c3ccc4ccccc4c3)ccc2n1	5.17		
CCOC(=O)c1ccc(CNc2ccc3nc(N)nc(N)c3c2C)cc1	8.85		
Nc1nc(N)c2cc(NCc3ccccc3N)ccc2n1		3.07	
Nc1nc(N)c2c(Sc3ccc(Cl)c(Cl)c3)cccc2n1	6.54		
Nc1nc(N)c2c(/C=C/c3ccc4ccccc4c3)cccc2n1	7.12		
CCCCOC(=O)c1ccc(NCc2ccc3nc(N)nc(N)c3c2Cl)cc1	7.68		
CC(Nc1ccc2nc(N)nc(N)c2c1)c1ccc(Cl)c(Cl)c1 (configuration not stated)		4.6	
Cc1c(CNc2ccc(C(=O)NC(CC(=O)O)C(=O)O)cc2)ccc2nc(N)nc(N)c12 (configuration not stated)	8.6		
Nc1ncnc2ccc(Sc3ccc4ccccc4c3)cc12	4.07		
Nc1nc(N)c2cc(NCCc3ccc(Cl)cc3)ccc2n1		4.24	
Nc1nc(O)c2cc(Sc3ccc(Cl)c(Cl)c3)ccc2n1	5.92		
Nc1nc(N)c2cc(CNc3ccc(C(=O)O)cc3)ccc2n1	8.8		
CCCCOC(=O)c1ccc(NCc2ccc3nc(N)nc(N)c3c2)cc1	7.52		
CCN(Cc1cccc2ccccc12)c1ccc2nc(N)nc(N)c2c1		5.97	
Nc1nc(N)c2cc(Sc3ccc(Cl)c(Cl)c3)ccc2n1	8.24		
CCOC(=O)c1ccc(NCc2ccc3nc(N)nc(N)c3c2Cl)cc1	8.64		
CC(c1ccc(Cl)c(Cl)c1)N(C)c1ccc2nc(N)nc(N)c2c1 (configuration not stated)		5.6	
Nc1nc(O)c2cc(CNc3ccc(C(=O)O)cc3)ccc2n1	5.74		

Reference: ChEMBL document CHEMBL3272349, “Quantitative structure-activity relationships of antimalarial and dihydrofolate reductase inhibition by quinazolines and 5-substituted benzyl-2,4-diaminopyrimidines” (J Med Chem, 1977)
